Data from US11186598B2, “Radioactive phospholipid metal chelates for cancer imaging and therapy” (Wisconsin Alumni Research Foundation, priority 2016, dated 2021).

Test system: flank U87 tumors
Assay: MRI comparison of Gd-DO3A-404 and DOTAREM in mice with flank U87 tumors (Example 5)
Assay type: in vivo, mouse
Conditions: as compared to Gd-DO3A-404
Description: To verify that uptake and retention was due to targeting of the “404” moiety, we directly compared the uptake of Gd-DO3A-404 with that of DOTA-chelated Gd^3+ (DOTAREM®) in an identical tumor model (mice with flank U87 tumors) and imaging scenario, using the same number of moles of each.
We the quantified the tumor to muscle ratio and compare it to baseline scans.

CNC[C@H](O)[C@@H](O)[C@H](O)[C@H](O)CO.O=C([O-])CN1CCN(CC(=O)[O-])CCN(CC(=O)O)CCN(CC(=O)[O-])CC1.[Gd+3] [DOTAREM®]
tumor to muscle ratio compared to baseline scans (uptake): less striking, and significant only at a couple of early time points
